C1CNCCNCCNCCN1
solubility (mole fraction)
Settings	298.15 K	303.15 K	308.15 K	313.15 K	318.15 K	323.15 K
in isopropanol	0.00193	0.00202	0.00213	0.00224	0.0023	0.00249
in methanol	0.00266	0.00268	0.00305	0.00318	0.00321	0.00328
